Marks after values point to notes of the source that are not given here.
Assays:
[1] = system: LDL; experiment: LDL peroxidation inhibitory effect (copper sulfate, malondialdehyde by thiobarbituric acid method); format: biochemical, rabbit; conditions: concentration 10^-5M; 37°C, 24 hours; malondialdehyde production inhibitory ratio
Method: LDL Peroxidation Inhibitory Effect
Male Japanese white rabbits weighing 2-2.5 kg were bred on 100 g per day of a high cholesterol feed [added with cholesterol (1%), Clea Japan, Inc.] for 4 weeks. The blood was taken from carotid and plasma was obtained. Then, LDL was fractionated from the plasma by ultracentrifugation, dialyzed for one day and preserved at 4° C. LDL (400 μg) and aqueous copper sulfate solution (final concentration 5 μM) were added to bufferized Ham F-10 medium (2 ml, GIBCO, USA). DMSO or a solution (20 μl) of test compound dissolved in DMSO was added and the mixture was incubated at 37° C. for 24 hours. After the completion of the incubation, LDL peroxide in medium was allowed to develop color by thiobarbituric acid method and assayed as malondialdehyde. The activity of the test compound was expressed as malondialdehyde production inhibitory ratio (%), namely, the proportion of inhibition of production of malondialdehyde as compared to control.

[2] = system: ACAT; experiment: ACAT inhibitory activity (small intestine mucosa microsomes, [1-14C]-oleoyl CoA, cholesteryl oleate production); format: biochemical, rabbit; conditions: inhibition of cholesteryl oleate production vs control
Method: A high cholesterol feed [a feed added with cholesterol (1%), Clea Japan, Inc.] was fed to male Japanese white rabbits weighing 2-2.5 kg at 100 g per day and the rabbits were bred for 4 weeks. The rabbits were killed by bleeding under anesthesia and small intestine was removed. The mucous membrane of small intestine was peeled, collected and homogenated. The homogenate was centrifuged at 4° C. and 10,000 rpm for 15 min. The obtained supernatant was further centrifuged at 4° C. and 41,000 rpm for 30 minutes to give microsomal fractions. Using this microsomal suspension as an enzyme sample, dimethyl sulfoxide (DMSO, 5 μl) or a test compound dissolved in DMSO (test compound solution, 5 μl), and a reaction substrate [1-^14C]-oleoyl CoA were added to a reaction buffer. After incubation at 37° C. for 5 minutes, a chloroform-methanol mixture was added to stop the reaction. Water was added thereto and mixed, and chloroform layer was separated. The solvent was evaporated to dryness, and the residue was dissolved in hexane. The mixture was subjected to thin layer chromatography using a silica gel plate. The spots of cholesteryl oleate on the silica gel plate were scraped, and quantitatively assayed on a liquid scintillation counter. The ACAT inhibitory activity of the test compound was expressed as a proportion (%) of inhibition of cholesteryl oleate, namely, the proportion of inhibition of cholesteryl oleate production as compared to control.

[3] = system: Male Wister rats; experiment: Serum total cholesterol reducing effect in rats on high cholesterol feed; format: in vivo; conditions: oral, once a day for 3 days, rat
Method: Serum Total Cholesterol Reducing Effect
Male Wister rats weighing 180-200 g were bred under free access to a high cholesterol feed [added with cholesterol (1%), cholic acid (0.5%) and coconut oil (10%), Clea Japan, Inc.] for 3 days, during which period a test compound (10-100 mg/kg) suspended in 5% gum arabic solution was forcibly administered once a day orally for 3 days. Only 5% gum arabic solution was administered to control animals. After final administration, the test animals were fasted for 5 hours and the blood was taken. The serum total cholesterol level was determined using a commercially available assay kit (cholesterol-E-Test Wako, Wako Pure Chemical Industries, Ltd.). The activity of the test compound was expressed as a proportion (%) of reduction of serum total cholesterol level, namely, the proportion of reduction of serum total cholesterol as compared to control.

[4] = system: plasma; experiment: Plasma lipoperoxidation inhibitory effect (copper sulfate, malondialdehyde by thiobarbituric acid method); format: biochemical, rabbit; conditions: concentration 10^-5M; 37°C, 3 hours; malondialdehyde production inhibitory ratio
Method: Plasma Lipoperoxidation Inhibitory Effect
The blood was taken from male Japanese white rabbits weighing 2-2.5 kg under anesthesia and heparinized plasma was separated by a conventional method. To the plasma (2.0 ml) was added DMSO or a solution (20 μl, final concentration 10^−5 M) of test compound dissolved in DMSO, and aqueous copper sulfate solution (final concentration 5 mM) was added immediately thereafter. The mixture was incubated at 37° C. for 3 hours. After the completion of the incubation, 20% trichloroacetic acid was added to stop the reaction. Then, the mixture was centrifuged at 4° C., 4,500 rpm for 15 minutes. The lipoperoxide in the supernatant thus obtained was assayed as malondialdehyde upon color development by thiobarbituric acid method. The activity of the test compound was expressed as malondialdehyde production inhibitory ratio (%), namely, the proportion of inhibition of production of malondialdehyde as compared to control.

Row | Structure (SMILES) | Result of Exp. Ex. 3: LDL peroxidation inhibition [1] [%] | Result of Exp. Ex. 1: ACAT inhibition ([2]; concentration 10^-5M) | Result of Exp. Ex. 2: reduction of serum total cholesterol ([3]; dose 30 mg/kg/day) | Result of Exp. Ex. 4: plasma lipoperoxidation inhibition [4] [%] | Result of Exp. Ex. 2: reduction of serum total cholesterol ([3]; dose 10 mg/kg/day) | Result of Exp. Ex. 2: reduction of serum total cholesterol ([3]; dose 100 mg/kg/day) | Result of Exp. Ex. 1: ACAT inhibition ([2]; concentration 10^-4M)
1 | CCCCN1CCc2c(C)cc(C)c(NC(=O)C(C)(C)C)c21 [Example 8] | 91.9 | 99.7 ** % | 48.0 ** % | 85.1 |  |  | 
2 | CCCCCCC(C)(C)C(=O)Nc1c(C)cc(C)c2c1N(CC)CC2 [Example 13] | 82.4 | 96.0 ** % | 28.4 ** % | 87.1 |  |  | 
3 | CCCCCCN1CCc2c(C)cc(C)c(NC(=O)C(C)C)c21 [Example 17] | 89.6 | 96.7 ** % |  | 91.1 | 27.0 * % |  | 
4 | CCCCCCN1CCc2c(C)cc(C)c(NC(=O)C(C)(C)CO)c21 [Example 28] | 92.2 | 79.4 ** % |  | 91.1 |  | 20.8 *** % | 
5 | CCCCCCCCN1CCc2c(C)cc(C)c(NC(=O)C(C)(C)C)c21 [Example 11] | 91.6 | 99.2 ** % |  | 78.8 | 59.5 * % |  | 
6 | CCOCCN1CCc2c(C)cc(C)c(NC(=O)C(C)(C)C)c21 [Example 24] | 42.2 | 97.1 ** % | 28.3 ** % | 90.5 |  |  | 
7 | CCCCCCC(C)(C)C(=O)Nc1c(C)cc(C)c2c1N(CCCC)CC2 [Example 10] | 18.3 | 98.7 ** % | 55.2 ** % | 82.6 |  |  | 
8 | Cc1cc(C)c(NC(=O)C(C)(C)C)c2c1CCN2CCC(C)C [Example 31] | 90.3 | 93.8 ** % | 49.0 ** % | 90.8 |  |  | 
9 | CCCCC(C)(C)C(=O)Nc1c(C)cc(C)c2c1N(CC)CC2 [Example 6] | 24.8 | 99.8 ** % | 53.3 ** % | 37.4 |  |  | 
10 | CCCCCCN1CCc2c(C)cc(C)c(NC(=O)CC(C)(C)CC(=O)O)c21 [Example 18] | 34.0 |  | 22.3 ** % | 87.1 |  |  | 69.6 * %
11 | Cc1cc(C)c(NC(=O)N(Cc2ccc3c(c2)Cc2ccccc2-3)C2CCCCCC2)c(C)c1 [YM-750, 1-cycloheptyl-1-[(2-fluorenyl)methyl]-3-(2,4,6-trimethylphenyl)urea, reference compound] | 0 | 92.3 ** % | 43.8 ** % |  |  |  | 
12 | CCCCCCN1CCc2c(C)cc(C)c(NC(=O)NCCCC)c21 [Example 4, 1-butyl-3-(1-hexyl-4,6-dimethylindolin-7-yl)urea] | 59.5 | 94.9 ** % | 21.4 ** % | 92.0 |  |  | 

Source: US6489475B2, “Method of producing heterocyclic derivatives” (Sankyo Company, Limited, priority 1994, dated 2002)
